What all share (format): in vivo
Assay [1] deals with Alopecurus myosuroides. Description: Post-emergence herbicidal activity, ALOMY. Further details: key: 5=total damage to plant; 0=no damage to plant. As to conditions: application post-emergence, 1000 g/Ha, evaluated after 13 days, scale 0-5. Here is the method: (§1) Seeds of a variety of test species were sown in standard soil in pots. After 8 days cultivation (post-emergence) under controlled conditions in a glasshouse (at 24/16° C., day/night; 14 hours light; 65% humidity), the plants were sprayed with an aqueous spray solution derived from the formulation of the technical active ingredient in acetone/water (50:50) solution containing 0.5% Tween 20 (polyoxyethelyene sorbitan monolaurate, CAS RN 9005-64-5). The test plants were then grown in a glasshouse under controlled conditions (at 24/16° C., day/night; 14 hours light; 65% humidity) and watered twice daily. After 13 days, the test was evaluated (5=total damage to plant; 0=no damage to plant).

The test system of assay [2] is Amaranthus retroflexus. The assay can be described thus: Post-emergence herbicidal activity, AMARE. Set-up: key: 5=total damage to plant; 0=no damage to plant. To be noted: application post-emergence, 1000 g/Ha, evaluated after 13 days, scale 0-5. As for the experimental part:
as §1

In assay [3] the test system is Abutilon theophrasti. Description: Post-emergence herbicidal activity, ABUTH. Further details: key: 5=total damage to plant; 0=no damage to plant. To be noted: application post-emergence, 1000 g/Ha, evaluated after 13 days, scale 0-5. As for the experimental part:
as §1

In assay [4] the test system is Abutilon theophrasti. The assay can be described thus: Pre-emergence herbicidal activity, ABUTH. Set-up: key: 5=total damage to plant; 0=no damage to plant. As to conditions: application pre-emergence, 1000 g/Ha, evaluated after 13 days, scale 0-5. Here is the method:
as §1, with “After” for “After 8 days”, “for one day (pre-emergence)” for “(post-emergence)”

Assay [5] concerns Zea mays. The assay can be described thus: Post-emergence herbicidal activity, ZEAMX. Further details: key: 5=total damage to plant; 0=no damage to plant. As to conditions: application post-emergence, 1000 g/Ha, evaluated after 13 days, scale 0-5. Here is the method:
as §1

The subject of assay [6] is Echinochloa crus-galli. The assay can be described thus: Post-emergence herbicidal activity, ECHCG. As to conditions: application post-emergence, 1000 g/Ha, evaluated after 13 days, scale 0-5. Further details: key: 5=total damage to plant; 0=no damage to plant. As for the experimental part:
as §1

Assay [7] deals with Alopecurus myosuroides. Description: Pre-emergence herbicidal activity, ALOMY. As to conditions: application pre-emergence, 1000 g/Ha, evaluated after 13 days, scale 0-5. As for the experimental part:
as §1, with “After” for “After 8 days”, “for one day (pre-emergence)” for “(post-emergence)”

For assay [8], the system named is Setaria faberi. Description: Post-emergence herbicidal activity, SETFA. Further details: key: 5=total damage to plant; 0=no damage to plant. To be noted: application post-emergence, 1000 g/Ha, evaluated after 13 days, scale 0-5. As for the experimental part:
as §1

Assay [9] has as its system Setaria faberi. Description: Pre-emergence herbicidal activity, SETFA. To be noted: application pre-emergence, 1000 g/Ha, evaluated after 13 days, scale 0-5. As for the experimental part:
as §1, with “After” for “After 8 days”, “for one day (pre-emergence)” for “(post-emergence)”

For assay [10], the system named is Amaranthus retroflexus. Description: Pre-emergence herbicidal activity, AMARE. Further details: key: 5=total damage to plant; 0=no damage to plant. To be noted: application pre-emergence, 1000 g/Ha, evaluated after 13 days, scale 0-5. As for the experimental part:
as §1, with “After” for “After 8 days”, “for one day (pre-emergence)” for “(post-emergence)”

Assay [11] deals with Zea mays. Description: Pre-emergence herbicidal activity, ZEAMX. As to conditions: application pre-emergence, 1000 g/Ha, evaluated after 13 days, scale 0-5. As for the experimental part:
as §1, with “After” for “After 8 days”, “for one day (pre-emergence)” for “(post-emergence)”

Assay [12] concerns Echinochloa crus-galli. The assay can be described thus: Pre-emergence herbicidal activity, ECHCG. To be noted: application pre-emergence, 1000 g/Ha, evaluated after 13 days, scale 0-5. Further details: key: 5=total damage to plant; 0=no damage to plant. As for the experimental part: as §1, with “After” for “After 8 days”, “for one day (pre-emergence)” for “(post-emergence)”

This note sets out measurements from patent publication US9751865B2, “Dihydro-hydantoin derivatives with herbicidal activity” (SYNGENTA PARTICIPATIONS AG, priority 2013, dated 2017).

Consider `CCOC1C(O)N(c2cc(C(C)(C)C)n(C)n2)C(=O)N1C` (stereo not drawn) [Compound A10], for which the ALOMY damage score with Alopecurus myosuroides [1] turned out to be 5; in the assay on Alopecurus myosuroides [7], 4. Also, the AMARE damage score with Amaranthus retroflexus [2] and in the assay with Amaranthus retroflexus [10] was 5 each time. Further, the ABUTH damage score in the assay with Abutilon theophrasti [3] and with Abutilon theophrasti [4] was 5 each time. Besides, the ZEAMX damage score was determined as 5 with Zea mays [5] and 2 in the assay on Zea mays [11]. Further, the ECHCG damage score in the assay with Echinochloa crus-galli [6] and with Echinochloa crus-galli [12] was 5 throughout. The SETFA damage score in the assay on Setaria faberi [8] is recorded as 5; with Setaria faberi [9], 4.

Turning to `CN1C(=O)N(c2cc(C(F)(F)F)n(C)n2)C(O)C1O` (stereo not drawn) [Compound A12, 4,5-dihydroxy-1-methyl-3-[1-methyl-5-(trifluoromethyl)pyrazol-3-yl]imidazolidin-2-one], the figures for the ALOMY damage score with Alopecurus myosuroides [1] and in the assay with Alopecurus myosuroides [7] were 5 and 4, respectively. For the same compound, the AMARE damage score with Amaranthus retroflexus [2] and in the assay on Amaranthus retroflexus [10] was 5 in each case. The ABUTH damage score in the assay on Abutilon theophrasti [3] and in the assay on Abutilon theophrasti [4] was 5 in each case. The ZEAMX damage score is reported as 4 in the assay on Zea mays [5] and 1 with Zea mays [11]. Also, the ECHCG damage score with Echinochloa crus-galli [6] is recorded as 5; with Echinochloa crus-galli [12], 4. The SETFA damage score with Setaria faberi [8] was found to be 5; in the assay with Setaria faberi [9] it was 4.

Consider `CN1CC(O)N(c2cc(C(F)(F)F)n(C)n2)C1=O` (stereo not drawn) [Compound A13], for which the figures for the ALOMY damage score in the assay with Alopecurus myosuroides [1] and in the assay with Alopecurus myosuroides [7] were 5 and 4, respectively. For the same compound, the AMARE damage score in the assay on Amaranthus retroflexus [2] and with Amaranthus retroflexus [10] was 5 throughout. Further, the ABUTH damage score in the assay on Abutilon theophrasti [3] and in the assay with Abutilon theophrasti [4] was 5 each time. In addition, the values for the ZEAMX damage score in the assay on Zea mays [5] and in the assay with Zea mays [11] were 4 and 2, respectively. Moreover, the ECHCG damage score in the assay with Echinochloa crus-galli [6] and with Echinochloa crus-galli [12] was 5 throughout. Also, the SETFA damage score came to 5 in the assay on Setaria faberi [8] and 4 in the assay with Setaria faberi [9].

Regarding `CN1CC(O)N(c2cc3n(n2)CCC3(C)C)C1=O` (stereo not drawn) [Compound A14], the figures for the ALOMY damage score with Alopecurus myosuroides [1] and in the assay on Alopecurus myosuroides [7] were 5 and 4, respectively. Further, the AMARE damage score with Amaranthus retroflexus [2] and with Amaranthus retroflexus [10] was 5 throughout. Besides, the ABUTH damage score in the assay on Abutilon theophrasti [3] and with Abutilon theophrasti [4] was 5 throughout. In addition, the ZEAMX damage score in the assay on Zea mays [5] was 5; in the assay with Zea mays [11], 3. The ECHCG damage score stood at 5 in the assay on Echinochloa crus-galli [6] and 4 with Echinochloa crus-galli [12]. The SETFA damage score is 5 in the assay with Setaria faberi [8] and 4 in the assay on Setaria faberi [9].

For the compound `C[C@@H]1C(O)N(c2cc(C(F)(F)F)n(C)n2)C(=O)N1C` (stereo partly drawn) [Compound A15, (5R)-4-hydroxy-1,5-dimethyl-3-[1-methyl-5-(trifluoromethyl)pyrazol-3-yl]imidazolidin-2-one], the values for the ALOMY damage score in the assay with Alopecurus myosuroides [1] and in the assay on Alopecurus myosuroides [7] were 5 and 2, respectively. The AMARE damage score in the assay with Amaranthus retroflexus [2] and in the assay on Amaranthus retroflexus [10] was 5 in each case. Further, the ABUTH damage score with Abutilon theophrasti [3] and with Abutilon theophrasti [4] was 5 in each case. The values for the ZEAMX damage score with Zea mays [5] and with Zea mays [11] were 5 and 1, respectively. In addition, the results for the ECHCG damage score in the assay on Echinochloa crus-galli [6] and in the assay with Echinochloa crus-galli [12] were 5 and 2, respectively. Moreover, the SETFA damage score worked out at 5 with Setaria faberi [8] and 3 in the assay with Setaria faberi [9].

Consider `CC1NC(=O)N(c2cc(C(C)(C)C)n(C)n2)C1O` (stereo not drawn) [Compound A17], for which the ALOMY damage score with Alopecurus myosuroides [1] and in the assay with Alopecurus myosuroides [7] was 3 each time. In addition, the AMARE damage score with Amaranthus retroflexus [2] stood at 4; in the assay on Amaranthus retroflexus [10], 5. For the same compound, the ABUTH damage score in the assay on Abutilon theophrasti [3] and in the assay on Abutilon theophrasti [4] was 4 throughout. In addition, the figures for the ZEAMX damage score in the assay on Zea mays [5] and in the assay with Zea mays [11] were 0 and 1, respectively. The results for the ECHCG damage score in the assay on Echinochloa crus-galli [6] and in the assay on Echinochloa crus-galli [12] were 3 and 4, respectively. In addition, the results for the SETFA damage score with Setaria faberi [8] and in the assay on Setaria faberi [9] were 2 and 3, respectively.
